The source of these data is patent US9744204B1, “Multipath nutritional supplement for memory, cognition, and coordination” (priority 2015, dated 2017).

Test [1] deals with rats. The note with it: in rats; cited from earlier work.
Test [2] has as its system transgenic Drosophila melanogaster with an inducible tau. Description: Timed crawl test in transgenic flies with RU-486-inducible human tau. The test is classed as in vivo. To be noted: RU-486-treated tau transgenic flies, crawl tests twice each week as flies aged (FIG. 1A, FIG. 2). As to the method:
FIGS. 1A and 1B show typical screens of transgenic Drosophila melanogaster with an inducible tau (FIG. 1A) or Abeta (FIG. 1B), which greatly reduces neural function with age. To assay for fly behavior changes as neural dysfunction progresses, timed crawl tests in which the time it takes individual flies to climb to the top of a test vial were performed twice each week as the flies aged. Select compositions were screened for use on the transgenic flies using the genetically targeted substances believed to act on longevity genes. Different dose concentrations were tested. Two hundred flies (1 fly of each sex in each of 100 vials) for each test condition were used. RU-486 was added to all fly samples except the untreated controls named Untreated (dashed blue line) and the A+P+T Control) about 4-5 days after flies were placed in vials. The first crawl tests were started about 9-10 days after insertion into vials and 5-6 days after RU addition (see FIGS. 1A and 1B). In Untreated Controls (dashed blue line), young flies typically crawl to the top of the vial quickly in 7-10 seconds, while older flies have progressively longer crawl times of up to 40 seconds or more with advancing age. The RU Controls (solid blue line) were treated with RU-486 without any helper substance and therefore have poor crawling tests and die early at 7 weeks (tau in FIG. 1A) or 5 weeks (Abeta in FIG. 1B). […]

For test [3], the system named is transgenic Drosophila melanogaster with an inducible Abeta. Description: Timed crawl test in transgenic flies with RU-486-inducible human Abeta. The test is classed as in vivo. The note with it: RU-486-treated Abeta transgenic flies (FIG. 1B).
Procedure: To assay for fly behavior changes as neural dysfunction progresses, timed crawl tests in which the time it takes individual flies to climb to the top of a test vial were performed twice each week as the flies aged. Select compositions were screened for use on the transgenic flies using the genetically targeted substances believed to act on longevity genes. Different dose concentrations were tested. Two hundred flies (1 fly of each sex in each of 100 vials) for each test condition were used. RU-486 was added to all fly samples except the untreated controls named Untreated (dashed blue line) and the A+P+T Control) about 4-5 days after flies were placed in vials. The first crawl tests were started about 9-10 days after insertion into vials and 5-6 days after RU addition (see FIGS. 1A and 1B). […] The single substances and substance combinations are shown by the one letter codes: A=Astragalus, P=Pterocarpus, T=L-Theanine, G=Genistein, B=Berberine, L=Lithium, and S=Selenium.
To assay for fly neural functional decline with age as Abeta, tau, or the Park gene is induced, crawl times were used to test substances initially picked from the genomics work.

As to `CCNC(=O)CC[C@H](N)C(=O)O` [L-Theanine, gamma-glutamylethylamide], the neuroprotection result in test [1] is given as “neuroprotective”.
Turning to `CC12CC3CC(C)(C1)CC(N)(C3)C2` [Mementin, reference compound], the “crawl time / delay of neuronal dysfunction induced by human tau expression” value in test [2] was “works very well”.
In the case of `[Se]` [Selenium], the “crawl time / delay of neuronal dysfunction induced by human tau expression” value in test [2] is on record as “can protect against dementia”. The “crawl time / protection against dementia induced by human Abeta expression” value in test [3] is recorded as “can protect against dementia”.
